Results as given in patent US20120021012A1, “NOVEL PHARMACEUTICAL USES FOR NANOPARTICLES” (CENTRE NATIONAL DE LA RECHERCHE SCIENTIFIQUE (C.N.R.S), priority 2008, published 2012).

System: human squamous carcinoma cell line HSC-2
Test: MTT cell survival assay, HSC human cancer cell line
Assay type: cell-based
Settings: paclitaxel applied 72 hours, AT84 and SG lines (FIG. 4)
Method: Cell survival was measured using a colorimetric method with 3-(4,5-dimethylthiazol-2-yl)-2,5-diphenyltetrazolium bromide (MTT). This molecule of yellow colour is reduced by mitochondrial dehydrogenase enzymes to a blue-coloured salt. This allows cell viability to be quantified in response to a treatment.
Cell survival was measured before and after exposure to different concentrations of SiC nanoparticles (0.1-0.5-1 mg/mL in a suspension of RPMI medium 10% FCS).
The cells were cultured in 96-well plates in the presence of SiC nanoparticles for 18 hours after which the media were replaced by standard culture media without any nanoparticles (RPMI medium 10% FCS, Sigma).
Cell viability was measured after different times (24, 48 and 72 hours). […]
Cell viability was measured by the difference in optical density at wavelengths of 450 and 504 nm, using a spectrophotometer connected to a computer system (Power Wave, Bio-Tek Instrument Inc.). The measured absorbency is then directly proportional to the number of living cells. The results are expressed as percentage survival measured under the initial conditions before exposure of the cells to the SiC nanoparticles. […]
Cell survival was measured using a colorimetric method with 3-(4,5-diemthylthiazol-2-yl)-2,5-diphenyltetrazolium bromide (MTT) such as described above in Example 1. […]
Cell viability was measured after 72 hours. […]

With `CC(=O)O[C@H]1C(=O)[C@@]2(C)[C@H]([C@H](OC(=O)c3ccccc3)[C@]3(O)C[C@H](OC(=O)[C@H](O)[C@@H](NC(=O)c4ccccc4)c4ccccc4)C(C)=C1C3(C)C)[C@]1(OC(C)=O)CO[C@@H]1C[C@@H]2O` [paclitaxel] the “inhibition percentages of cell survival compared with the SiC nanoparticles” value was “of the same order”.
